What was measured:
Assay type in all cases: in vivo
wild oat (Avena fatua) = test: Test B pre-/postemergence plant response
Method in brief: (§1)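 Each species received compound formulated in non-phytotoxic solvent with surfactant, either at planting into a loam and sand blend or as a foliar spray once plants reached 2 to 18 cm in peat-based medium. Plants stayed in the greenhouse 13 to 15 days before visual evaluation against controls, scored 0 (no effect) to 100 (complete control).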

[1] = tested on: Italian ryegrass (Lolium multiflorum); test: Test D pre-/postemergence plant response
Description: (§2) Seeds of plant species selected from bermudagrass (Cynodon dactylon), Surinam grass (Brachiaria decumbens), large crabgrass (Digitaria sanguinalis), green foxtail (Setaria viridis), goosegrass (Eleusine indica), johnsongrass (Sorghum halepense), kochia (Kochia scoparia), morningglory (pitted morningglory, Ipomoea lacunosa), nutsedge (purple nutsedge, Cyperus rotundus), ragweed (common ragweed, Ambrosia elatior), black mustard (Brassica nigra), guineagrass (Panicum maximum), dallisgrass (Paspalum dilatatum), barnyardgrass (Echinochloa crus-galli), sandbur (southern sandbur, Cenchrus echinatus), sowthistle (common sowthistle, Sonchus oleraceous), prickly sida (Sida spinosa), Italian ryegrass (Lolium multiflorum), purslane (common purslane, Portulaca oleracea), signalgrass (broadleaf signalgrass, Brachiaria platyphylla), groundsel (common groundsel, Senecio vulgaris), chickweed (common chickweed, Stellaria media), dayflower (Virginia (VA) dayflower, Commelina virginica), bluegrass (annual bluegrass, Poa annua), naked crabgrass (Digitaria nuda), itchgrass (Rottboellia cochinchinensis), quackgrass (Elytrigia repens), field bindweed (Convolvulus arvensis), spanishneedles (Bidens bipinnata), mallow (common mallow, Malva sylvestris) and Russian thistle (Salsola kali), were planted into a blend of loam soil and sand and treated preemergence with test chemicals formulated in a non-phytotoxic solvent mixture which included a surfactant. At the same time, plants from these weed species were treated with postemergence applications of the test chemicals formulated in the same manner. Plants ranged in height from 2 to 18 cm (1- to 4-leaf stage) for postemergence treatments.
(§3) Treated plants and controls were maintained in a greenhouse for 14 to 21 days, after which time all species were visually evaluated and compared to controls. Plant response ratings, summarized in Table D, are based on a scale of 0 to 100 where 0 is no effect and 100 is complete control. A dash (-) response means no test result.

[2] = tested on: Surinam grass (Brachiaria decumbens); test: Test D pre-/postemergence plant response
Description: as §2, §3

[3] = tested on: field bindweed (Convolvulus arvensis); test: Test D pre-/postemergence plant response
Description: as §2, §3

[4] = tested on: groundsel (common groundsel, Senecio vulgaris); test: Test D pre-/postemergence plant response; conditions: Postemergence
Description: as §2, §3

[5] = tested on: guineagrass (Panicum maximum); test: Test D pre-/postemergence plant response
Description: as §2, §3

[6] = tested on: johnsongrass (Sorghum halepense); test: Test D pre-/postemergence plant response
Description: as §2, §3

[7] = tested on: nutsedge (purple nutsedge, Cyperus rotundus); test: Test D pre-/postemergence plant response
Description: as §2, §3

[8] = tested on: prickly sida (Sida spinosa); test: Test D pre-/postemergence plant response
Description: as §2, §3

[9] = tested on: galium (catchweed bedstraw, Galium aparine); test: Test B pre-/postemergence plant response; conditions: Preemergence
Method in brief: as §1

[10] = tested on: nightshade (eastern black nightshade, Solanum ptycanthum); test: Test B pre-/postemergence plant response; conditions: Preemergence
Method in brief: as §1

[11] = tested on: sunflower (common oilseed sunflower, Helianthus annuus); test: Test B pre-/postemergence plant response; conditions: Preemergence
Method in brief: as §1

[12] = Postemergence, 31 g ai/ha, 0 to 100 scale (0 no effect, 100 complete control)
[13] = Postemergence, 62 g ai/ha, scale 0 to 100 (0 no effect, 100 complete control)
[14] = Postemergence, 250 g ai/ha, scale 0 to 100 (0 no effect, 100 complete control), 13 to 15 days
[15] = Postemergence, 125 g ai/ha, scale 0 to 100 (0 no effect, 100 complete control)
[16] = 125 g ai/ha, scale 0 to 100 (0 no effect, 100 complete control)
[17] = Postemergence, 31 g ai/ha, scale 0 to 100
[18] = Postemergence, 16 g ai/ha, scale 0 to 100
[19] = Preemergence, 16 g ai/ha, scale 0 to 100, 0 no effect, 100 complete control
[20] = Preemergence, 31 g ai/ha, scale 0 to 100 (0 no effect, 100 complete control)
[21] = Preemergence, 125 g ai/ha, scale 0 to 100
[22] = Preemergence, 62 g ai/ha, scale 0 to 100
[23] = 62 g ai/ha, scale 0 to 100 (0 no effect, 100 complete control)
[24] = 31 g ai/ha, scale 0 to 100 (0 no effect, 100 complete control)
[25] = 125 g ai/ha, scale 0 to 100, 0 no effect, 100 complete control

SMILES: COCCn1c(-c2ccsc2)ncc(C(=O)C2=C(O)C3CCC(C3)C2=O)c1=O (stereo not shown) [Compound 228]
- Plant response rating, Oat, Wild (wild oat (Avena fatua); [12]): 0
- Plant response rating, Oat, Wild (wild oat (Avena fatua); [13]): 5
- Plant response rating, Oat, Wild (wild oat (Avena fatua); [14]): 40
- Plant response rating, Ryegrass, Italian [1, 15]: 5
- Plant response rating, Surinam Grass [2, 15]: 70
- Plant response rating, Field Bindweed [3, 15]: 70
- Plant response rating, Groundsel [4, 16]: 100
- Plant response rating, Guineagrass [5, 15]: 15
- Plant response rating, Johnsongrass [6, 15]: 70
- Plant response rating, Nutsedge, Purple [7, 15]: 15
- Plant response rating, Prickly Sida [8, 15]: 65

SMILES: COCCn1c(-c2cccc(C)c2)ncc(C(=O)C2=C(O)C3CCC(C3)C2=O)c1=O (stereo not shown) [Compound 233]
- Plant response rating, Oat, Wild (wild oat (Avena fatua); [12]): 30
- Plant response rating, Oat, Wild (wild oat (Avena fatua); [13]): 35
- Plant response rating, Oat, Wild (wild oat (Avena fatua); [14]): 60
- Plant response rating, Ryegrass, Italian [1, 17]: 0
- Plant response rating, Ryegrass, Italian [1, 13]: 5
- Plant response rating, Ryegrass, Italian [1, 15]: 5
- Plant response rating, Ryegrass, Italian [1, 18]: 0
- Plant response rating, Ryegrass, Italian [1, 19]: 0
- Plant response rating, Ryegrass, Italian [1, 20]: 0
- Plant response rating, Ryegrass, Italian [1, 21]: 20
- Plant response rating, Surinam Grass [2, 13]: 50
- Plant response rating, Surinam Grass [2, 15]: 60
- Plant response rating, Surinam Grass [2, 18]: 30
- Plant response rating, Surinam Grass [2, 19]: 0
- Plant response rating, Surinam Grass [2, 20]: 5
- Plant response rating, Surinam Grass [2, 21]: 100
- Plant response rating, Field Bindweed [3, 17]: 50
- Plant response rating, Field Bindweed [3, 13]: 50
- Plant response rating, Field Bindweed [3, 15]: 70
- Plant response rating, Field Bindweed [3, 18]: 10
- Plant response rating, Field Bindweed [3, 19]: 0
- Plant response rating, Field Bindweed [3, 20]: 0
- Plant response rating, Field Bindweed [3, 22]: 85
- Plant response rating, Field Bindweed [3, 21]: 85
- Plant response rating, Groundsel ([4]; 31 g ai/ha, scale 0 to 100): 50
- Plant response rating, Groundsel [4, 23]: 90
- Plant response rating, Groundsel [4, 16]: 100
- Plant response rating, Groundsel ([4]; 16 g ai/ha, scale 0 to 100): 30
- Plant response rating, Guineagrass [5, 17]: 30
- Plant response rating, Guineagrass [5, 13]: 40
- Plant response rating, Guineagrass [5, 15]: 50
- Plant response rating, Guineagrass [5, 18]: 20
- Plant response rating, Guineagrass [5, 19]: 0
- Plant response rating, Guineagrass [5, 20]: 0
- Plant response rating, Guineagrass [5, 22]: 0
- Plant response rating, Guineagrass [5, 21]: 0
- Plant response rating, Johnsongrass [6, 17]: 35
- Plant response rating, Johnsongrass [6, 13]: 50
- Plant response rating, Johnsongrass [6, 15]: 50
- Plant response rating, Johnsongrass [6, 18]: 20
- Plant response rating, Johnsongrass [6, 19]: 0
- Plant response rating, Johnsongrass [6, 20]: 0
- Plant response rating, Johnsongrass [6, 22]: 20
- Plant response rating, Johnsongrass [6, 21]: 65
- Plant response rating, Nutsedge, Purple [7, 17]: 0
- Plant response rating, Nutsedge, Purple [7, 13]: 0
- Plant response rating, Nutsedge, Purple [7, 15]: 0
- Plant response rating, Nutsedge, Purple [7, 18]: 0
- Plant response rating, Nutsedge, Purple [7, 19]: 0
- Plant response rating, Nutsedge, Purple [7, 20]: 0
- Plant response rating, Nutsedge, Purple [7, 22]: 0
- Plant response rating, Nutsedge, Purple [7, 21]: 5
- Plant response rating, Prickly Sida [8, 17]: 50
- Plant response rating, Prickly Sida [8, 13]: 50
- Plant response rating, Prickly Sida [8, 15]: 60
- Plant response rating, Prickly Sida [8, 18]: 30
- Plant response rating, Prickly Sida [8, 19]: 0
- Plant response rating, Prickly Sida [8, 20]: 0
- Plant response rating, Prickly Sida [8, 22]: 0
- Plant response rating, Prickly Sida [8, 21]: 70

SMILES: CCc1ccccc1-n1c(-c2ccccc2)ncc(C(=O)C2=C(O)CCCC2=O)c1=O [Compound 255]
- Plant response rating, Galium [9, 24]: 0
- Plant response rating, Galium [9, 23]: 50
- Plant response rating, Galium [9, 25]: 60
- Galium plant response rating ([9]; 250 g ai/ha, 0 to 100 scale): 100
- Plant response rating, Nightshade [10, 24]: 75
- Plant response rating, Nightshade [10, 23]: 90
- Plant response rating, Nightshade [10, 25]: 100
- Nightshade plant response rating ([10]; 250 g ai/ha, 0 to 100 scale): 100
- Plant response rating, Sunflower [11, 24]: 45
- Plant response rating, Sunflower [11, 23]: 60
- Plant response rating, Sunflower [11, 25]: 75
- Sunflower plant response rating ([11]; 250 g ai/ha, 0 to 100 scale): 90
- Plant response rating, Oat, Wild (wild oat (Avena fatua); [12]): 65
- Plant response rating, Oat, Wild (wild oat (Avena fatua); [13]): 80
- Plant response rating, Oat, Wild (wild oat (Avena fatua); Postemergence, 125 g ai/ha, scale 0 (no effect) to 100 (complete control), 13 to 15 days): 85
- Plant response rating, Oat, Wild (wild oat (Avena fatua); [14]): 90
- Plant response rating, Oat, Wild (wild oat (Avena fatua); [20]): 0
- Plant response rating, Oat, Wild (wild oat (Avena fatua); Preemergence, 62 g ai/ha, scale 0 to 100 (0 no effect, 100 complete control)): 0
- Plant response rating, Oat, Wild (wild oat (Avena fatua); Preemergence, 125 g ai/ha, scale 0 to 100, 0 no effect, 100 complete control): 60
- Oat, Wild plant response rating (wild oat (Avena fatua); Preemergence, 250 g ai/ha, 0 to 100 scale): 90

Source: patent publication US8952024B2, “Herbicidal pyrimidone derivatives” (E I du Pont de Nemours and Company, priority 2009, dated 2015)
